Test results from PMC8850433, “CRISPR-assisted rational flux-tuning and arrayed CRISPRi screening of an L-proline exporter for L-proline hyperproduction” (Nature Communications, 2022).

Target: T1, Cgl2622 (Corynebacterium glutamicum, UniProt Q79VD1)
T1 construct: full-length membrane exporter, expressed from plasmid under IPTG-inducible Ptrc in cgl2622-deleted C. glutamicum
Type: cell-based
Conditions: intact C. glutamicum cells, CGXII medium, 20 g/L glucose, 3 mM Thr-Pro peptide, 30 °C; efflux

T1 sequence (Q79VD1 1-489): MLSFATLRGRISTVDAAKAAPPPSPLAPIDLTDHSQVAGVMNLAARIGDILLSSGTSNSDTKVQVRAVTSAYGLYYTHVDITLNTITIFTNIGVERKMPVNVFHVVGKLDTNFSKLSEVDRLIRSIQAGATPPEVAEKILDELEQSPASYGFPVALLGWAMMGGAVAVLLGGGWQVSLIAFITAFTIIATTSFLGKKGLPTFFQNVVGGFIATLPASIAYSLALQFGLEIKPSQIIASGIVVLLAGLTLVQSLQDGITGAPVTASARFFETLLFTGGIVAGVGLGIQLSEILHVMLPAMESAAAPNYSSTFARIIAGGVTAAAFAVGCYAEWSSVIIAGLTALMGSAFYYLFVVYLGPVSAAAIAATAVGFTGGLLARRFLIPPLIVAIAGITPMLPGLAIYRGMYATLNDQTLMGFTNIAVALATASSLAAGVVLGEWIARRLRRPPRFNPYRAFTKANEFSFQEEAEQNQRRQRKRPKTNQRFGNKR

O=C(O)[C@@H]1CCCN1 [L-proline]
Thr-Pro peptide uptake and amino acid export assay, deletion vs complementation,: These results further verify the function of Cgl2622 as an L-proline exporter.
